Assay results taken from patent publication US5482960A, “Nonpeptide endothelin antagonists” (Warner-Lambert Company, priority 1994, dated 1996).

Experiments:
[1] = target: T1, rabbit femoral artery (ETA) (Oryctolagus cuniculus, UniProt A5A8K3); assay: In vitro antagonism of ET-1 stimulated vasoconstriction (VERA-A) in the rabbit femoral artery (ETA); format: cell-based
T1 construct: Femoral and pulmonary arteries were isolated, cleaned of connective tissue, and cut into 4-mm rings; from tissue; host or cells: rabbit femoral artery rings, endothelium denuded
T1 sequence (A5A8K3 21-427): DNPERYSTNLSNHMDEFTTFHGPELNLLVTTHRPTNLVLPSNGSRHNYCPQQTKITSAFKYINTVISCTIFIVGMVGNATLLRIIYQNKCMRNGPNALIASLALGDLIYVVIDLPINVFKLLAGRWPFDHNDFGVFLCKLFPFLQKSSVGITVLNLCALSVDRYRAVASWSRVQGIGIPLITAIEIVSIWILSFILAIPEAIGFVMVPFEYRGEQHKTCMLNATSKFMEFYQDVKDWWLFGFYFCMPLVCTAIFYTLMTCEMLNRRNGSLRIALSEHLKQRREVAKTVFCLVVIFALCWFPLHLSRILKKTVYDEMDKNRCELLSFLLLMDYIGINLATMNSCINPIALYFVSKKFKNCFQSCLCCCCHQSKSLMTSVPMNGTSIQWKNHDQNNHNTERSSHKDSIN
Method: (§1) Male New Zealand rabbits were killed by cervical dislocation and exsanguination. Femoral and pulmonary arteries were isolated, cleaned of connective tissue, and cut into 4-mm rings. The endothelium was denuded by placing the rings over hypodermic tubing (32 gauge for femoral rings and 28 gauge for pulmonary rings, Small Parts, Inc, Miami, Fla.) and gently rolling them. […] Resting tension was adjusted to 3.0 g for femoral and 4.0 g pulmonary arteries; the rings were left for 90 minutes to equilibrate.

[2] = target: T2, ETA (rabbit renal artery vascular smooth muscle cells) (Oryctolagus cuniculus, UniProt A5A8K3); format: binding; conditions: [125I]-ET-1 40 pM, 2 hours at 37° C.; read-out: ERBA-A IC50 (converted)
T2 construct: rabbit renal artery vascular smooth muscle cells (ERBA-A); endogenous in cells; host or cells: cultured rabbit renal artery vascular smooth muscle cells (membranes)
T2 sequence (A5A8K3 21-427): T1 sequence (A5A8K3 21-427)
Method: The compounds of Formula I are valuable antagonists of endothelin. […] Membranes were prepared from cultured cells by lysing cells in cold lysis buffer (5 mM HEPES, 2 mM EDTA, pH 7.4) and homogenizing with a Dounce "A" homogenizer. The homogenate was centrifuged at 30,000×g for 20 min at 4° C. […] Radioligand and competing ligands were prepared in binding buffer containing 20 mM Tris, 2 mM EDTA, and 0.1% BSA. Competing binding assays were initiated by combining membranes, [125I]-ET-1 (40 pM) and the competing ligand in a final volume of 250 uL and incubating for 2 hours at 37° C.

recombinant human ETB R = target: T3, recombinant human ETB R (Homo sapiens, UniProt P24530); format: binding; conditions: [125I]-ET-1 40 pM, 2 hours at 37° C., CHO-K1 cells, read-out: HERBA-B IC50
T3 construct: expressed in transfected cells; host or cells: CHO-K1 cells (membranes)
T3 sequence (P24530 27-442): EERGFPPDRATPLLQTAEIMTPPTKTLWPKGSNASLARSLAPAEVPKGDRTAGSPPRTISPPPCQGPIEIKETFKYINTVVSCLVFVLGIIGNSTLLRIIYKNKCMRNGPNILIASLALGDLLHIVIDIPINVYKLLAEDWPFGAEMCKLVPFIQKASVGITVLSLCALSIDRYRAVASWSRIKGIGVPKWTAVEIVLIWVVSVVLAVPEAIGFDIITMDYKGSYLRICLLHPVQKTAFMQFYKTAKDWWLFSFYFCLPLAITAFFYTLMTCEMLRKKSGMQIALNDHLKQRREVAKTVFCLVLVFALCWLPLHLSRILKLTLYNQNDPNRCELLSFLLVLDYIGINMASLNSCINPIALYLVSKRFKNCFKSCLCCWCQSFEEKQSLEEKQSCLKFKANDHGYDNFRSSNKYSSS
Method: (§2) Membranes were prepared from cultured cells by lysing cells in cold lysis buffer (5 mM HEPES, 2 mM EDTA, pH 7.4) and homogenizing with a Dounce "A" homogenizer. The homogenate was centrifuged at 30,000×g for 20 min at 4° C. […] Radioligand and competing ligands were prepared in binding buffer containing 20 mM Tris, 2 mM EDTA, and 0.1% BSA.

recombinant human ETA R = target: T4, recombinant human ETA R (Homo sapiens, UniProt P25101); format: binding; conditions: [125I]-ET-1 40 pM, 2 hours at 37° C., Ltk- cells, read-out: HERBA-A IC50
T4 construct: expressed in transfected cells; host or cells: Ltk- cells (membranes)
T4 sequence (P25101 21-427): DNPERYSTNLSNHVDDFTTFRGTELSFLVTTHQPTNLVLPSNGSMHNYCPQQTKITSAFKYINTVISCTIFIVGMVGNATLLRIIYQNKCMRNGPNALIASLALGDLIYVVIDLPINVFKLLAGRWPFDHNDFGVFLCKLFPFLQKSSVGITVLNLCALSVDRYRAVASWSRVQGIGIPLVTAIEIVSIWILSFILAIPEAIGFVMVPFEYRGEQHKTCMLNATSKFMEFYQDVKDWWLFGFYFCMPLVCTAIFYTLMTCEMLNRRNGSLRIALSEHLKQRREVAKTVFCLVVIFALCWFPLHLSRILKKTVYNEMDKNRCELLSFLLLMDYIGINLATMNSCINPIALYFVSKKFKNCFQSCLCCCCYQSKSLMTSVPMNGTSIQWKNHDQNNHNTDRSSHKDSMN
Method: as §2

[3] = system: porcine pulmonary arteries; conditions: isolated, endothelium-intact porcine pulmonary arteries; cited from earlier work
[4] = target: T5, rabbit pulmonary artery (ETB) (Oryctolagus cuniculus, UniProt Q9N0W7); assay: Antagonism of sarafotoxin 6c stimulated vasoconstriction in the rabbit pulmonary artery (ETB) (VERA-B); format: cell-based
T5 construct: Femoral and pulmonary arteries were isolated, cleaned of connective tissue, and cut into 4-mm rings; from tissue; host or cells: rabbit pulmonary artery rings, endothelium denuded
T5 sequence (Q9N0W7 27-441): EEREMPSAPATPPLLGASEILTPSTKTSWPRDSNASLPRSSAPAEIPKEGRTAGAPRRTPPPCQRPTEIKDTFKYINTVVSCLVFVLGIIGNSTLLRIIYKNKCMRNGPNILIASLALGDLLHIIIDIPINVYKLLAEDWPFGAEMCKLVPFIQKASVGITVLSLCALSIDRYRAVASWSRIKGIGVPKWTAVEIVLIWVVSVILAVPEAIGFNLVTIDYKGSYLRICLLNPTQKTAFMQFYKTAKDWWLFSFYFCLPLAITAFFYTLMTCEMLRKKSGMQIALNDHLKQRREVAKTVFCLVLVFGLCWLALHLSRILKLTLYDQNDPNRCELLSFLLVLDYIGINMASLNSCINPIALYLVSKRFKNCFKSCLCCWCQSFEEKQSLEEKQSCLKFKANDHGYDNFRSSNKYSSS
Method: as §1

| Compound | IC50 [1] [nM] | IC50 [2] [nM] | IC50 (recombinant human ETB R) [nM] | IC50 (recombinant human ETA R) [nM] | vasorelaxation [3] | IC50 [4] [nM] |
| --- | --- | --- | --- | --- | --- | --- |
| COc1cccc(Sc2c(C(=O)O)n(Cc3ccc4c(c3)OCO4)c3cc(OC)c(OC)cc23)c1 [Example 2] | 100 | 30 | 1100 | – | – | – |
| O=C(O)c1c(Sc2ccc3c(c2)OCO3)c2ccccc2n1Cc1ccc2c(c1)OCO2 [Example 5, 1-Benzo[1,3]dioxol-5-ylmethyl-3-(benzo[1,3]dioxol-5-ylsulfanyl)-1H-indole-2-carboxylic acid] | – | 570 | 4500 | 380 | – | – |
| ET[1,3,11,15-A1a]: selective ETB agonist, linear analog (ASASSLMDKEAVYFAHLDIIW; Endothelin-1; UniProt P05305 53-73, looked up, variant C1A C3A C11A C15A) | – | – | – | – | caused vasorelaxation | – |
| COc1cccc(Sc2c(C(=O)O)n(Cc3ccccc3)c3ccccc23)c1 [Example 4, 1-Benzyl-3-(3-methoxy-phenylsulfanyl)-1H-indole-2carboxylic acid] | – | 7300 | 1500 | 4600 | – | – |
| COc1ccc(Sc2c(C(=O)O)n(Cc3ccc4c(c3)OCO4)c3cc4c(cc23)OCO4)cc1OC [Example 8, 5-Benzo [1,3]dioxo1-5-ylmethyl-7-(3,4-dimethoxyphenylsulfanyl)-5H-[1,3]dioxolo[4,5-f]indole-6-carboxylicacid] | 316 | – | 170 | 39 | – | 316 |
| COc1cccc(Sc2c(C(=O)O)n(Cc3cc(OC)c4c(c3)OCO4)c3cc4c(cc23)OCO4)c1 [Example 7, 5-(7-Methoxy-benzo[1,3]dioxol-5-ylmethyl)-7-(3-methoxy-phenylsulfanyl)-5H-[1,3]dioxolo[4,5-f]indole-6carboxylic acid] | – | – | 2900 | 380 | – | – |
| COc1ccc(Cn2c(C(=O)O)c(Sc3cccc(OC)c3)c3cc(OC)c(OC)cc32)cc1 [Example 12, 5,6-Dimethoxy-1-(4-methoxy-benzyl)-3-(3-methoxy-phenylsulfanyl)-1H-indole-2-carboxylic acid] | – | – | 870 | 160 | – | – |
| O=C(O)c1c(Sc2ccccc2)c2ccccc2n1-c1ccc2c(c1)OCO2 [Example 1, 1-Benzo-[1,3]dioxol-5-yl-3-phenylsulfanyl-1H-indole-2-carboxylic acid] | – | 1900 | 6500 | 3200 | – | – |
| COc1cccc(Sc2c(C(=O)O)n(Cc3ccc4c(c3)OCO4)c3cc4c(cc23)OCO4)c1 [Example 6, 5-Benzo[1,3]dioxol-5-ylmethyl-7-(3-methoxy-phenylsulfanyl)-5H-[1,3]dioxolo[4,5-f]indole-6-carboxylic acid] | – | – | 710 | 84 | – | – |
| COc1cccc(Sc2c(C(=O)O)n(Cc3ccc4c(c3)OCO4)c3ccccc23)c1 [Example 3, 1-Benzo[1,3]dioxol-5-ylmethyl-3-(3-methoxy-phenylsulfanyl)-1H-indole-2-carboxylic acid] | – | 500 | 7400 | 90 | – | – |
| COc1cccc(Sc2c(C(=O)O)n(Cc3ccc4c(c3)OCO4)c3cc(OC)c(OCc4ccccc4)cc23)c1 [Example 13, 1-Benzo[1,3]dioxol-5-ylmethyl-5-benzyloxy-6-methoxy-3-(3-methoxy-phenylsulfanyl)-1H-indole-2-carboxylic acid] | – | – | 690 | 81 | – | – |
| CCCOc1ccc2c(Sc3cccc(OC)c3)c(C(=O)O)n(Cc3ccc4c(c3)OCO4)c2c1 [Example 10, 1-Benzo[1,3]dioxol-5-ylmethyl-3-(3-methoxy-phenylsulfanyl)-6-propoxy-1H-indole-2-carboxylic acid] | – | – | 6700 | 590 | – | – |
| COc1ccc(Sc2c(C(=O)O)n(Cc3cc(OC)c4c(c3)OCO4)c3cc4c(cc23)OCO4)cc1OC [Example 9, 7-(3,4-Dimethoxy-phenylsulfanyl)-5-(7-methoxy-benzo[1,3]dioxol-5-ylmethyl)-5H-[1,3]dioxolo[4,5-f]indole-6-carboxylic acid] | – | – | 420 | 170 | – | – |
| COc1cc2c(Sc3cc(OC)c(OC)c(OC)c3)c(C(=O)O)n(Cc3ccc4c(c3)OCO4)c2cc1OC [Example 14, 1-Benzo[1,3]dioxol-5-ylmethyl-5,6-dimethoxy-3-(3,4,5-trimethoxy-phenylsulfanyl)-1H-indole-2-carboxylic acid] | 31.6 | – | – | – | – | 3160 |
| COc1cc2c(Sc3ccc4c(c3)OCO4)c(C(=O)O)n(Cc3ccc4c(c3)OCO4)c2cc1OCc1ccccc1 [Example 15, 1-Benzo[1,3]dioxol-5-ylmethyl-3-(benzo[1,3]dioxol-5-ylsulfanyl)-6-benzyloxy-5-methoxy-1H-indole-2-carboxylic acid] | – | – | 53 | 690 | – | – |
| COc1cc2c(Sc3ccc4c(c3)OCO4)c(C(=O)O)n(Cc3ccc4c(c3)OCO4)c2cc1OC [Example 17, 1-Benzo[1,3]dioxol-5-ylmethyl-3-(benzo[1,3]dioxol-5-ylsulfanyl)-5,6-dimethoxy-1H-indole-2-carboxylic acid] | 50.1 | 631 | – | – | – | – |
| COc1cccc(Sc2c(C(=O)O)n(Cc3ccc(OC)cc3OCC(=O)O)c3cc(OC)c(OC)cc23)c1 [Example 16, 1-(2-Carboxymethoxy-4-methoxy-benzyl)-5,6-dimethoxy-3-(3-methoxy-phenylsulfanyl)-1H-indole-2carboxylic acid] | – | – | 1200 | 480 | – | – |
| COc1cccc(Sc2c(C(=O)O)n(Cc3cc(OC)c4c(c3)OCO4)c3cc(OC)c(OC)cc23)c1 [Example 11, 5,6-Dimethoxy-1-(7-methoxy-benzo[1,3]dioxol-5-ylmethyl)-3-(3-methoxy-phenylsulfanyl)-1H-indole-2carboxylic acid] | – | – | 1100 | 58 | – | – |
